Measurements from PubChem BioAssay (NCI).
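Protocol summary: plate cells (96-well), add compound at 5 concentrations, incubate 48 h, interpolate endpoints linearly. GI50: concentration for 50% inhibition of growth. TGI marks complete inhibition of growth.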

Columns and labels:
Test in all cases: NCI tumour cell line growth inhibition, 48 h
NCI-H23 lung = test system: NCI-H23 lung
OVCAR-5 ovarian = test system: OVCAR-5 ovarian
OVCAR-3 ovarian = test system: OVCAR-3 ovarian
SF-268 CNS = test system: SF-268 CNS
MALME-3M melanoma = test system: MALME-3M melanoma
NCI-H226 lung = test system: NCI-H226 lung
HL-60(TB) leukemia = test system: HL-60(TB) leukemia
HOP-62 NSCLC = test system: HOP-62 NSCLC
NCI-H522 lung = test system: NCI-H522 lung
HCT-116 colon = test system: HCT-116 colon
SK-MEL-28 melanoma = test system: SK-MEL-28 melanoma
SR leukemia = test system: SR leukemia
K-562 leukemia = test system: K-562 leukemia
MOLT-4 leukemia = test system: MOLT-4 leukemia
HS 578T breast = test system: HS 578T breast
PC-3 prostate = test system: PC-3 prostate
SF-539 CNS = test system: SF-539 CNS
KM12 colon = test system: KM12 colon
SK-MEL-2 melanoma = test system: SK-MEL-2 melanoma
SNB-19 CNS = test system: SNB-19 CNS
TK-10 renal = test system: TK-10 renal
T-47D breast = test system: T-47D breast
SK-OV-3 ovarian = test system: SK-OV-3 ovarian
M14 melanoma = test system: M14 melanoma
CCRF-CEM leukemia = test system: CCRF-CEM leukemia
IGROV1 ovarian = test system: IGROV1 ovarian
EKVX NSCLC = test system: EKVX NSCLC
UACC-257 melanoma = test system: UACC-257 melanoma
NCI/ADR-RES ovarian = test system: NCI/ADR-RES ovarian

For `Nc1ncc(-c2ccc3ncnc(N4CCc5cc(F)c(Cl)cc54)c3c2)cc1CO`, the GI50 (NCI-H23 lung) was 803 nM, the TGI (NCI-H23 lung) was 3720 nM and the GI50 (OVCAR-5 ovarian) was 422 nM. For the same compound, the TGI (OVCAR-5 ovarian) was 12100 nM, the GI50 (OVCAR-3 ovarian) was 468 nM and the TGI (OVCAR-3 ovarian) was 4840 nM. For the same compound, the GI50 (SF-268 CNS) was 663 nM, the TGI (SF-268 CNS) was 7890 nM and the GI50 (MALME-3M melanoma) was 186 nM. It also gave a TGI (MALME-3M melanoma) of 1420 nM, a GI50 (NCI-H226 lung) of 570 nM and a TGI (NCI-H226 lung) of 9140 nM. The GI50 (HL-60(TB) leukemia) was 1070 nM, the TGI (HL-60(TB) leukemia) was 4500 nM and the GI50 (HOP-62 NSCLC) was 776 nM. The TGI (HOP-62 NSCLC) was 5120 nM, the GI50 (NCI-H522 lung) was 419 nM and the TGI (NCI-H522 lung) was 3020 nM. For the same compound, the GI50 (HCT-116 colon) was 1260 nM, the TGI (HCT-116 colon) was 5020 nM and the GI50 (SK-MEL-28 melanoma) was 393 nM. For the same compound, the TGI (SK-MEL-28 melanoma) was 5210 nM, the GI50 (SR leukemia) was 475 nM and the TGI (SR leukemia) was 4660 nM. The GI50 (K-562 leukemia) was 887 nM, the TGI (K-562 leukemia) was > 23200 nM and the GI50 (MOLT-4 leukemia) was 525 nM. It also gave a TGI (MOLT-4 leukemia) of 4720 nM, a GI50 (HS 578T breast) of 404 nM and a TGI (HS 578T breast) of 2940 nM. For the same compound, the GI50 (PC-3 prostate) was 343 nM, the TGI (PC-3 prostate) was 25100 nM and the GI50 (SF-539 CNS) was 1270 nM. For the same compound, the TGI (SF-539 CNS) was 4450 nM, the GI50 (KM12 colon) was 1650 nM and the TGI (KM12 colon) was 8230 nM. For the same compound, the GI50 (SK-MEL-2 melanoma) was 1090 nM, the TGI (SK-MEL-2 melanoma) was 2890 nM and the GI50 (SNB-19 CNS) was 1430 nM. It also gave a TGI (SNB-19 CNS) of 12900 nM, a GI50 (TK-10 renal) of 231 nM and a TGI (TK-10 renal) of 2030 nM. The GI50 (T-47D breast) was 169 nM, the TGI (T-47D breast) was 936 nM and the GI50 (SK-OV-3 ovarian) was 451 nM. The TGI (SK-OV-3 ovarian) was 2820 nM, the GI50 (M14 melanoma) was 543 nM and the TGI (M14 melanoma) was 3900 nM. It also gave a GI50 (CCRF-CEM leukemia) of 1580 nM, a TGI (CCRF-CEM leukemia) of 11200 nM and a GI50 (IGROV1 ovarian) of 178 nM. For the same compound, the TGI (IGROV1 ovarian) was 724 nM, the GI50 (EKVX NSCLC) was 259 nM and the TGI (EKVX NSCLC) was 1930 nM. It also gave a GI50 (UACC-257 melanoma) of 644 nM, a TGI (UACC-257 melanoma) of 4310 nM and a GI50 (NCI/ADR-RES ovarian) of 1660 nM. It also gave a TGI (NCI/ADR-RES ovarian) of 9100 nM.
